Source: US20210177803A1, “NEW PHARMACEUTICAL USE FOR THE TREATMENT OF HEART FAILURE” (Novartis AG, priority 2018, published 2021)
Where two headings read alike, the source gives them in different places.

What was measured:
[1] = tested on: patients with HFrEF following hemodynamic stabilization after an episode of ADHF; settings: for Patients with ≥1 AE: full analysis set;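 as to all read-outs here: adverse events recorded in patients during the 10-week treatment phase following randomization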
[2] = tested on: ambulatory HF patients with an ejection fraction ≤40%; settings: compared with enalapril; cited from earlier work
NT-proBNP = tested on: NT-proBNP
Description: The study rational and design is described in by Velazquez E J, et al. .in Am.
The starting dose and all subsequent doses were selected to optimize the highest tolerated dose based on a systolic blood pressure (SBP) algorithm.
Inclusion Criteria: • Patients ≥18 y of age with the capacity to provide written informed consent. • Currently hospitalized for a primary diagnosis of HF, including symptoms and signs of fluid overload. • Eligible patients will be randomized no earlier than 24 hours and up to ten days after presentation while still hospitalized as long as meet the following definition of stable status: • SBP≥100 mm Hg for the preceding 6 hours prior to randomization; no symptomatic hypotension • No increase (intensification) in i.v. diuretic dose within last 6 hours prior to randomization • No i.v. inotropic drugs for 24 hours prior to randomization • No i.v. vasodilators including nitrates within last 6 hours prior to randomization • Left ventricular EF 40% within the past 6 m (including current hospitalization) using echocardiography, multi gated acquisition scan (MUGA), CT scanning, MRI or ventricular angiography, provided no subsequent study documented an EF of >40% • Elevated NT-proBNP≥1600 pg/mL OR BNP≥400 pg/mL during current hospitalization.

[3] = not naive to ACEI/ARB (N = 665)
[4] = post-discharge, N = 496, 10-week treatment epoch
[5] = post-discharge, N = 496, 10-week treatment period
[6] = pre-discharge, N = 497, 10-week treatment epoch
[7] = pre-discharge, N = 497, 10-week treatment period
[8] = previous diagnosis of HFrEF (N = 705)

## CCCCC(=O)N(Cc1ccc(-c2ccccc2-c2nn[n-]n2)cc1)[C@H](C(=O)[O-])C(C)C.CCOC(=O)[C@H](C)C[C@@H](Cc1ccc(-c2ccccc2)cc1)NC(=O)CCC(=O)[O-].[Na+].[Na+].[Na+] [LCZ696, trisodium [3((1S,3R)-1-biphenyl-4-ylmethyl-3-ethoxycarbonyl-1-butylcarbamoyl) propionate-(S)-3′-methyl-2′-(pentanoyl{2″-(tetrazol-5-ylate)biphenyl-4′-ylmethyl}amino)butyrate]hemipentahydrate]
[1]; both arms
  Deaths attributed to the study treatment by the investigator: None
[1]; both treatment groups
  SAE hyperkalemia, patients: < 1%
  SAE hypotension, patients: < 1%
[1]; de novo HFrEF (N = 286)
  AE of interest: Blood creatinine increased: 3 (1.0) n (%)
  AE of interest: Cardiac failure: 13 (4.5) n (%)
  AE of interest: Hyperkalemia: 24 (8.4) n (%)
  AE of interest: Hypotension: 26 (9.1) n (%)
  AE of interest: Renal failure: 3 (1.0) n (%)
  AE of interest: Renal impairment: 8 (2.8) n (%)
  At least one AE: 178 (62.2) n (%)
  At least one serious AE: 33 (11.5) n (%)
  Death: 1 (0.3) n (%)
  Treatment interruption due to AE: 22 (7.7) n (%)
[1]; initiated post-discharge (text, secondary endpoint)
  Rate of permanent discontinuation of study drug due to AEs: 3.5%
[1]; initiated pre-discharge (text, secondary endpoint)
  Rate of permanent discontinuation of study drug due to AEs: 4.5%
[1]; naive to ACEI/ARB (N = 326)
  AE of interest: Blood creatinine increased: 6 (1.8) n (%)
  AE of interest: Cardiac failure: 17 (5.2) n (%)
  AE of interest: Hyperkalemia: 20 (7.1) n (%)
  AE of interest: Hypotension: 29 (8.9) n (%)
  AE of interest: Renal failure: 6 (1.8) n (%)
  AE of interest: Renal impairment: 8 (2.5) n (%)
  At least one AE: 210 (64.4) n (%)
  At least one serious AE: 47 (14.4) n (%)
  Treatment interruption due to AE: 32 (9.8) n (%)
[1]; [3]
  AE of interest: Blood creatinine increased: 23 (3.5) n (%)
  AE of interest: Cardiac failure: 54 (8.1) n (%)
  AE of interest: Hyperkalemia: 86 (12.9) n (%)
  AE of interest: Hypotension: 79 (11.9) n (%)
  AE of interest: Renal failure: 13 (2.0) n (%)
  AE of interest: Renal impairment: 32 (4.8) n (%)
  At least one AE: 446 (67.1) n (%)
  At least one serious AE: 116 (17.4) n (%)
  Treatment interruption due to AE: 77 (11.8) n (%)
[1]; post-discharge arm
  Mortality, patients who died: 2.0%
[1]; post-discharge group
  AE cardiac failure, patients: 8.5%
  AE dizziness, patients: 4.2%
  AE hyperkalemia, patients: 11.3%
  AE hypotension, patients: 9.1%
  Patients with SAEs: 17.7%
  SAE acute kidney injury, patients: 1.4%
  SAE cardiac failure, patients: 7.7%
[1]; post-discharge, N = 496
  Permanent treatment discontinuation due to SAEs: 13 (2.6) n (%)
  Permanent treatment discontinuation due to non-SAEs: 7 (1.4) n (%)
  Serious adverse event: Acute kidney injury: 7 (1.4) n (%)
  Serious adverse event: Atrial fibrillation: 4 (0.8) n (%)
  Serious adverse event: Cardiac failure(acute/chronic): 38 (7.7) n (%)
  Serious adverse event: Chronic obstructive pulmonary disease: 4 (0.8) n (%)
  Serious adverse event: Hyperkalemia: 2 (0.4) n (%)
  Serious adverse event: Hypotension: 2 (0.4) n (%)
  Serious adverse event: Non-cardiac chest pain: 3 (0.6) n (%)
  Serious adverse event: Pneumonia: 3 (0.6) n (%)
  Serious adverse event: Pulmonary edema: 2 (0.4) n (%)
  Serious adverse event: Renal failure: 1 (0.2) n (%)
  Serious adverse event: Respiratory tract infection: 3 (0.6) n (%)
  Serious adverse event: Ventricular tachycardia: 0 (0.0) n (%)
  Temporary treatment interruption due to AEs: 55 (11.1) n (%)
  Temporary treatment interruption due to SAEs: 18 (3.6) n (%)
  Temporary treatment interruption due to non-SAEs: 42 (8.5) n (%)
[1]; [4]
  Adverse event: Cardiac failure: 42 (8.5) n (%)
  Adverse event: Diarrhea: 23 (4.6) n (%)
  Adverse event: Dizziness: 21 (4.2) n (%)
  Adverse event: Hyperkalemia: 56 (11.3) n (%)
  Adverse event: Hypotension: 45 (9.1) n (%)
  Adverse event: Peripheral edema: 24 (4.8) n (%)
  Adverse event: Renal impairment: 15 (3.0) n (%)
  Adverse event: Urinary tract infection: 15 (3.0) n (%)
[1]; [5]
  Deaths: 10 (2.0) n (%)
  Patients with ≥ SAE / at least one SAE: 88 (17.7) n (%)
  Patients with ≥1 AE: 323 (65.1) n (%)
[1]; post-discharge, N = 496, full analysis set
  Permanent treatment discontinuation due to AEs: 20 (4.0) n (%)
[1]; pre- vs post-discharge
  RRR, permanent discontinuation due to AEs: 1.287
[1]; pre-discharge arm
  Mortality, patients who died: 2.6%
[1]; pre-discharge group
  AE cardiac failure, patients: 6.8%
  AE dizziness, patients: 5.6%
  AE hyperkalemia, patients: 11.1%
  AE hypotension, patients: 12.3%
  Patients with SAEs: 18.9%
  SAE acute kidney injury, patients: 1.2%
  SAE cardiac failure, patients: 7.0%
[1]; pre-discharge, N = 497
  Permanent treatment discontinuation due to SAEs: 15 (3.0) n (%)
  Permanent treatment discontinuation due to non-SAEs: 8 (1.6) n (%)
  Serious adverse event: Acute kidney injury: 6(1.2) n (%)
  Serious adverse event: Atrial fibrillation: 3 (0.6) n (%)
  Serious adverse event: Cardiac failure(acute/chronic): 35 (7.0) n (%)
  Serious adverse event: Chronic obstructive pulmonary disease: 0 (0.0) n (%)
  Serious adverse event: Hyperkalemia: 3 (0.6) n (%)
  Serious adverse event: Hypotension: 4 (0.8) n (%)
  Serious adverse event: Non-cardiac chest pain: 0 (0.0) n (%)
  Serious adverse event: Pneumonia: 4 (0.8) n (%)
  Serious adverse event: Pulmonary edema: 3 (0.6) n (%)
  Serious adverse event: Renal failure: 3 (0.6) n (%)
  Serious adverse event: Respiratory tract infection: 0 (0.0) n (%)
  Serious adverse event: Ventricular tachycardia: 3 (0.6) n (%)
  Temporary treatment interruption due to AEs: 70 (14.1) n (%)
  Temporary treatment interruption due to SAEs: 21 (4.2) n (%)
  Temporary treatment interruption due to non-SAEs: 54 (10.9) n (%)
[1]; [6]
  Adverse event: Cardiac failure: 34 (6.8) n (%)
  Adverse event: Diarrhea: 12 (2.4) n (%)
  Adverse event: Dizziness: 28 (5.6) n (%)
  Adverse event: Hyperkalemia: 55 (11.1) n (%)
  Adverse event: Hypotension: 61(12.3) n (%)
  Adverse event: Peripheral edema: 17 (3.4) n (%)
  Adverse event: Renal impairment: 25 (5.0) n (%)
  Adverse event: Urinary tract infection: 20 (4.0) n (%)
[1]; [7]
  Deaths: 13 (2.6) n (%)
  Patients with ≥ SAE / at least one SAE: 94 (18.9) n (%)
  Patients with ≥1 AE: 338 (68.0) n (%)
[1]; pre-discharge, N = 497, full analysis set
  Permanent treatment discontinuation due to AEs: 22 (4.4) n (%)
[1]; [8]
  AE of interest: Blood creatinine increased: 26 (3.7) n (%)
  AE of interest: Cardiac failure: 58 (8.2) n (%)
  AE of interest: Hyperkalemia: 85 (12.1) n (%)
  AE of interest: Hypotension: 108 (10.9) n (%)
  AE of interest: Renal failure: 16 (2.3) n (%)
  AE of interest: Renal impairment: 32 (4.5) n (%)
  At least one AE: 478 (67.8) n (%)
  At least one serious AE: 130 (18.4) n (%)
  Death: 5 (0.7) n (%)
  Treatment interruption due to AE: 87 (12.3) n (%)
[2]
  Relative risk reduction in cardiovascular mortality and hospitalization for worsening HF: 20%
NT-proBNP; LCZ696 vs. Enalapril
  Ratio of time-averaged change in NT-proBNP from baseline to the geometric mean of weeks 4 and 8: 0.71
NT-proBNP; LCZ696 vs. enalapril, week 1
  Ratio of change in NT-proBNP from baseline: 0.76
